Consider one molecule from patent US20040018991A1, “Topical treatment for mastalgia” (priority 2000, published 2004).

This assay in a line: healing test: topical 4-hydroxy-androstenedione cream applied to the breasts of patients with mastalgia. The assay is classed as in vivo, human. The text has this: Treatments acting with 4-hydroxy-androstenedione for mastalgia syndrome are described, wherein instead of 4-hydroxy-androstenedione, other aromatase inhibitors may be used.
Findings: Tension-related pains in both breasts occurring 3 to 5 days before each menstruation, apparently bundled shooting into the breast nipples. Then slowly decreasing pains, symptoms and signs and tension states during the menstruation period until about the 10th day after onset of menstruation.
A cream treated with 0.5 wt. % of 4-hydroxy-androstenedione was used (0.5% of 4OH-androstenedione introduced into 100 ml of ash-based cream). 4 g were administered daily, and specifically 2 g applied externally to each breast and carefully massaged in.
Start of healing test about 3 weeks before the period.
Continuation of the healing test with daily administration of 4-OH-androstenedione cream 0.5% strength.
Findings: For years, severe swelling and tension feeling occurring in each case 3-5 days before menstruation with diffuse pain symptoms and signs radiating into the thorax, which is almost unbearable until the onset of menstruation. For years, unable to work 1-3 days per month due to these pains. Disappearance of symptoms and signs only on 8th-12th day after onset of menstruation.
Healing test using 1% strength 4-OH-androstenedione cream (1 g of 4-OH-androstenedione introduced into 100 ml of ash-based cream).
Dose 1×daily 4 g, in each case 2 g applied to each breast.
The start of the healing test took place about 2 weeks before onset of menstruation.
Continuation of the healing test using 0.5% strength 4-OH-androstenedione cream (0.5 g of 4-OH-androstenedione introduced into 100 ml of ash-based cream) 4 g daily, that is 2 g applied to each breast.

[1] abbreviates: Example 2, 1% strength cream, 1x daily 4 g, subsequent period 2.
Where [2] appears, read: Example 2, continuation with 0.5% strength cream, 4 g daily, subsequent periods.

For the molecule `C[C@]12CCC(=O)C(O)=C1CC[C@@H]1[C@@H]2CC[C@]2(C)C(=O)CC[C@@H]12` [4-hydroxy-androstenedione, 4-hydroxyandrostenedione], the tension pain entry (Example 1, person, 0.5 wt. % cream, 4 g daily (2 g each breast), first subsequent period) is reported as “Significantly reduced tension pain”. For the same molecule, the pain result (Example 1, 0.5% strength cream daily, second subsequent period) is “complete freedom from pain”. Besides, the “course of symptoms and signs” value (Example 1, 0.5 wt. % cream, 4 g daily, first subsequent period) was “symptoms and signs subsided more rapidly”. For the same molecule, the “time to pain-free after start of menstruation” value (Example 1, 0.5 wt. % cream, 4 g daily, first subsequent period (before treatment until about the 10th day)) was determined as 5 days. For the setting “Example 2, person, 1% strength cream, 1x daily 4 g, subsequent period 1”, the course of mastalgia entry is “somewhat blander course”. For the setting “Example 2, 1% strength cream, 1x daily 4 g, subsequent period 1 (before treatment 1-3 days per month)”, this molecule yielded an inability to work of 1 days. Moreover, under setting [1], the inability to work result is “no inability to work”; the “pain symptoms and signs” value is “considerably lower pain symptoms and signs”; the “swelling and tension feeling” value is “Significantly lower swelling and tension feeling”. Under setting [2], the “mastopathy-related inability to work” value is recorded as “no mastopathy-related inability to work”; the pain entry is given as “practically pain-free”; the “swelling and tension feelings” value is “Hardly any swelling and tension feelings”.
